Patent US20220257632A1, “MICROLUMENAL TARGETING OF CANCER CELLS” (Fred Hutchinson Cancer Research Center, priority 2019, published 2022)

How the values were obtained:
[1] = system: MMTV-PyMT clusters; test: Sulfo-NHS-biotin permeability of MMTV-PyMT clusters; format: cell-based, mouse; details: treatment 1 hr prior to biotin
Protocol: (§1) FIG. 4C is a quantification of epigen immunogold signal; n=268 gold particles. To determine if microlumenal junctions were permeable, clusters were incubated with cell-impermeable sulfo-NHS-biotin. 1 mM EGTA was used as a positive control to disrupt cell-cell junctions. Biotin leak was quantified by measuring streptavidin-FITC fluorescence signal within clusters. n=3 biological replicates. n=75 clusters per condition. P-values=Mann-Whitney tests (FIG. 4D) Immunofluorescence of epigen in clusters with and without 1 mM EGTA treatment to disrupt cell-cell junctions was measured. […] P-value=Mann-Whitney test.
The accumulation of epigen within microlumina implied a mechanism for preventing ligand diffusion and signal reduction. To characterize the permeability of tumor cell clusters, a technique used to differentially label apical and basal proteins was adapted. Clusters were treated with a cell impermeable biotin (sulfo-NHS-biotin, 0.4 KDa) which labels membrane surface proteins but is excluded from the cytosol. At baseline, biotin was excluded from cell-cell junction membranes within MMTV-PyMT clusters and predominantly labeled the cell-matrix junction membranes (FIG. 4D).
To test the permeability of tumor cell clusters, NHS-biotin was added to a final concentration of 0.8 mM in PBS for 30 minutes at 37° C. […]
(§2) Phalloidin staining and DAPI were used to define membrane and nuclear areas, respectively. Using the freehand line tool in FIJI software, lines along cell-matrix (outer membrane), cell-cell (intercellular) membranes, and intracellular (cytosolic) areas were drawn and median fluorescence intensity was measured for each channel. […] Then the polygon selection tool was used to measure FITC-streptavidin intensity in the cluster core (excluding the cell-matrix contacts) and intensity was normalized to the area measured. To assess biotin permeability in tumor vs. stroma areas, mean FITC-streptavidin signal was measured in FIJI in equally sized squares in adjacent pure tumor or pure stroma areas. […]

[2] = system: MMTV-PyMT clusters; test: Epigen immunofluorescence in MMTV-PyMT clusters after junction disruption; format: cell-based, mouse
Protocol: as §1, with “test. […]” for “test.”
as §2

[3] = system: tumor cell clusters; test: Cluster outgrowth on treatment with recombinant epigen; format: cell-based

Molecule: C/C1=C/C(=O)O[C@@H]2C[C@@H](CC[C@H](C)/C=C\C=C\CC1)O[C@@](O)([C@@H]1CSC(=O)N1)C2 [Latrunculin A]
- biotin leak into clusters [1]: allowed biotin to leak between clustered cells

Molecule: O=C(O)CN(CCOCCOCCN(CC(=O)O)CC(=O)O)CC(=O)O [calcium chelation, ethylene glycol-bis(β-aminoethyl ether)-N,N,N′,N′-tetraacetic acid]
- biotin leak into clusters [1]: biotin was able to leak into intercellular spaces
- epigen signal in clusters (immunofluorescence) [2]: marked loss of epigen signal

Molecule: C[C@@H]1Cc2c(Cl)cc(C(=O)N[C@@H](Cc3ccccc3)C(=O)O)c(O)c2C(=O)O1 [ochratoxin A]
- biotin leak into clusters [1]: allowed biotin to leak between clustered cells

B1: recombinant epigen: Recombinant epigen (R&D 1127-EP), growth factor and EGFR ligand (protein, UniProt Q6UW88 23-154, looked up)
Epigen: AAVTVTPPITAQQGNWTVNKTEADNIEGPIALKFSHLCLEDHNSYCINGACAFHHELEKAICRCFTGYTGERCEHLTLTSYAVDSYEKYIAIGIGVGLLLSGFLVIFYCYIRKRCLKLKSPYNVCSGERRPL
- outgrowth [3]: induced outgrowth in a dose-dependent manner
